These results are taken from the supplement of paper PMC8967900.
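Further: ALL cell lines in 384-well plates, five doses spanning 10,000-fold, each plate scaled between vehicle and 100 µmol/L benzalkonium chloride controls, sDSS an adapted area-under-curve metric.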

For the first test, the system named is KASUMI-9. Put plainly: selective drug sensitivity score (sDSS, relative to normal bone marrow) (sDSS (score)); higher = more potent and effective on the cell line relative to normal bone marrow cells. Particulars: 72 h.
In the case of `Cn1cc(C2=C(c3cn(C4CCN(Cc5ccccn5)CC4)c4ccccc34)C(=O)NC2=O)c2ccccc21` [Enzastaurin] (top concentration 10000 nM), the “selective drug sensitivity score” value came to 4.36.
As to `NS(=O)(=O)NCCNc1nonc1/C(=N/O)Nc1ccc(F)c(Br)c1` [Epacadostat] (top concentration 10000 nM), the “selective drug sensitivity score” value is 0.74.
On the same count and under the same terms, to `CCOc1ccccc1-n1c(C(C)N2CCN(C(=O)COc3ccc(Cl)cc3)CC2)nc2ccccc2c1=O` (stereo not given) [Erastin] (top concentration 10000 nM) belongs 7.74; to `COc1cc(OC)cc(N(CCNC(C)C)c2ccc3ncc(-c4cnn(C)c4)nc3c2)c1` [Erdafitinib] (top concentration 1000 nM), 0.34; to `CC(C)(C)NC(=O)[C@H]1CC[C@H]2[C@@H]3CC[C@H]4NC(=O)C=C[C@]4(C)[C@H]3CC[C@]12C` [Finasteride] (top concentration 10000 nM), -0.12.
`O=c1[nH]c(=O)n([C@H]2C[C@H](O)[C@@H](CO)O2)cc1F` [Floxuridine] (top concentration 10000 nM): the “selective drug sensitivity score” value worked out at 29.
Regarding `CNc1nc(Nc2cn(C(C)(C)C#N)nc2C)ncc1C(F)(F)F` [GNE-0877] (top concentration 1000 nM), the “selective drug sensitivity score” value was 0.
Same read-out and setting: to `CCCc1cc(C)[nH]c(=O)c1CNC(=O)c1cc(-c2ccnc(N3CCN(C)CC3)c2)cc2c1cnn2C(C)C` [GSK343] (top concentration 1000 nM) belongs 0; to `O=C(O)c1ccc(O)c2ncccc12` [IOX-1] (top concentration 100000 nM), 2.94.

The subject of another test is COG-LL-332h. The test is described as above. The note with it: 72 h.
With `CCCCCOC(=O)Nc1nc(=O)n([C@@H]2O[C@H](C)[C@@H](O)[C@H]2O)cc1F` [Capecitabine] (top concentration 10000 nM), the “selective drug sensitivity score” value was -0.06.
Regarding `Nc1nc(Cl)nc2c1ncn2[C@H]1C[C@H](O)[C@@H](CO)O1` [Cladribine] (top concentration 1000 nM), the “selective drug sensitivity score” value was 3.26.
Still for that read-out and setting: in the case of `CCN(CC)CCOc1ccc(/C(=C(/Cl)c2ccccc2)c2ccccc2)cc1` [Clomifene] (top concentration 10000 nM) it was 0.42; in that of `CO[C@@H](C(=O)N1Cc2[nH]nc(NC(=O)c3ccc(N4CCN(C)CC4)cc3)c2C1)c1ccccc1` [Danusertib] (top concentration 10000 nM), 17.2; in that of `CC[C@@](C)(Nc1ccnc(-c2c[nH]c3ncccc23)n1)C(=O)NCC(F)(F)F` [Decernotinib] (top concentration 10000 nM), -3.34.
Still for that read-out and setting: to `CN1CCN(c2ccc3nc(-c4c(N)c5c(F)cccc5[nH]c4=O)[nH]c3c2)CC1` [Dovitinib] (top concentration 10000 nM) belongs 0.36.
For `CC(C)(O)CNc1nc(Nc2ccnc(C(F)(F)F)c2)nc(-c2cccc(C(F)(F)F)n2)n1` [Enasidenib] (top concentration 10000 nM), the “selective drug sensitivity score” value is -0.5.
On the same count and under the same terms, to `CN1CCN(c2ccc(C(=O)Nc3n[nH]c4ccc(Cc5cc(F)cc(F)c5)cc34)c(NC3CCOCC3)c2)CC1` [Entrectinib] (top concentration 1000 nM) belongs -0.5; to `CNC(=O)c1ccc(N2C(=S)N(c3ccc(C#N)c(C(F)(F)F)c3)C(=O)C2(C)C)cc1F` [Enzalutamide] (top concentration 10000 nM), -0.12; to `Cn1cc(C2=C(c3cn(C4CCN(Cc5ccccn5)CC4)c4ccccc34)C(=O)NC2=O)c2ccccc21` [Enzastaurin] (top concentration 10000 nM), 6.16.
Still for that read-out and setting: in the case of `NS(=O)(=O)NCCNc1nonc1/C(=N/O)Nc1ccc(F)c(Br)c1` [Epacadostat] (top concentration 10000 nM) it was -0.26; in that of `CCOc1ccccc1-n1c(C(C)N2CCN(C(=O)COc3ccc(Cl)cc3)CC2)nc2ccccc2c1=O` (stereo not given) [Erastin] (top concentration 10000 nM), 12.7; in that of `COc1cc(OC)cc(N(CCNC(C)C)c2ccc3ncc(-c4cnn(C)c4)nc3c2)c1` [Erdafitinib] (top concentration 1000 nM), -0.46.
Same read-out and setting: to `CC(C)(C)NC(=O)[C@H]1CC[C@H]2[C@@H]3CC[C@H]4NC(=O)C=C[C@]4(C)[C@H]3CC[C@]12C` [Finasteride] (top concentration 10000 nM) belongs -0.52.
In the case of `O=c1[nH]c(=O)n([C@H]2C[C@H](O)[C@@H](CO)O2)cc1F` [Floxuridine] (top concentration 10000 nM), the “selective drug sensitivity score” value was 26.1.
Consider `CNc1nc(Nc2cn(C(C)(C)C#N)nc2C)ncc1C(F)(F)F` [GNE-0877] (top concentration 1000 nM), for which the “selective drug sensitivity score” value was found to be 0.
The same measure, in the same setting: in the case of `CCCc1cc(C)[nH]c(=O)c1CNC(=O)c1cc(-c2ccnc(N3CCN(C)CC3)c2)cc2c1cnn2C(C)C` [GSK343] (top concentration 1000 nM) it was 0; in that of `O=C(O)c1ccc(O)c2ncccc12` [IOX-1] (top concentration 100000 nM), 7.54.

The next test deals with MHH-CALL-4. The test is described as above. The note with it: 72 h.
On to `CCCCCOC(=O)Nc1nc(=O)n([C@@H]2O[C@H](C)[C@@H](O)[C@H]2O)cc1F` [Capecitabine] (top concentration 10000 nM), for which the “selective drug sensitivity score” value is 0.04.
The same measure, in the same setting: in the case of `Nc1nc(Cl)nc2c1ncn2[C@H]1C[C@H](O)[C@@H](CO)O1` [Cladribine] (top concentration 1000 nM) it was 4.06; in that of `CCN(CC)CCOc1ccc(/C(=C(/Cl)c2ccccc2)c2ccccc2)cc1` [Clomifene] (top concentration 10000 nM), 2.72; in that of `CO[C@@H](C(=O)N1Cc2[nH]nc(NC(=O)c3ccc(N4CCN(C)CC4)cc3)c2C1)c1ccccc1` [Danusertib] (top concentration 10000 nM), 7.14.
The same measure, in the same setting: in the case of `CC[C@@](C)(Nc1ccnc(-c2c[nH]c3ncccc23)n1)C(=O)NCC(F)(F)F` [Decernotinib] (top concentration 10000 nM) it was -3.94; in that of `CN1CCN(c2ccc3nc(-c4c(N)c5c(F)cccc5[nH]c4=O)[nH]c3c2)CC1` [Dovitinib] (top concentration 10000 nM), -0.14; in that of `CC(C)(O)CNc1nc(Nc2ccnc(C(F)(F)F)c2)nc(-c2cccc(C(F)(F)F)n2)n1` [Enasidenib] (top concentration 10000 nM), -0.8.
Regarding `CN1CCN(c2ccc(C(=O)Nc3n[nH]c4ccc(Cc5cc(F)cc(F)c5)cc34)c(NC3CCOCC3)c2)CC1` [Entrectinib] (top concentration 1000 nM), the “selective drug sensitivity score” value was found to be 0.4.
In the case of `CNC(=O)c1ccc(N2C(=S)N(c3ccc(C#N)c(C(F)(F)F)c3)C(=O)C2(C)C)cc1F` [Enzalutamide] (top concentration 10000 nM), the “selective drug sensitivity score” value was -0.72.
Still for that read-out and setting: in the case of `Cn1cc(C2=C(c3cn(C4CCN(Cc5ccccn5)CC4)c4ccccc34)C(=O)NC2=O)c2ccccc21` [Enzastaurin] (top concentration 10000 nM) it was -0.04; in that of `NS(=O)(=O)NCCNc1nonc1/C(=N/O)Nc1ccc(F)c(Br)c1` [Epacadostat] (top concentration 10000 nM), 4.24.
The same measure, in the same setting: in the case of `CCOc1ccccc1-n1c(C(C)N2CCN(C(=O)COc3ccc(Cl)cc3)CC2)nc2ccccc2c1=O` (stereo not given) [Erastin] (top concentration 10000 nM) it was 6.44; in that of `COc1cc(OC)cc(N(CCNC(C)C)c2ccc3ncc(-c4cnn(C)c4)nc3c2)c1` [Erdafitinib] (top concentration 1000 nM), -0.46.
As to `CC(C)(C)NC(=O)[C@H]1CC[C@H]2[C@@H]3CC[C@H]4NC(=O)C=C[C@]4(C)[C@H]3CC[C@]12C` [Finasteride] (top concentration 10000 nM), the “selective drug sensitivity score” value was determined as 1.88.
Take `O=c1[nH]c(=O)n([C@H]2C[C@H](O)[C@@H](CO)O2)cc1F` [Floxuridine] (top concentration 10000 nM): the “selective drug sensitivity score” value came to 22.6.
The same measure, in the same setting: in the case of `CNc1nc(Nc2cn(C(C)(C)C#N)nc2C)ncc1C(F)(F)F` [GNE-0877] (top concentration 1000 nM) it was 0; in that of `CCCc1cc(C)[nH]c(=O)c1CNC(=O)c1cc(-c2ccnc(N3CCN(C)CC3)c2)cc2c1cnn2C(C)C` [GSK343] (top concentration 1000 nM), 0; in that of `O=C(O)c1ccc(O)c2ncccc12` [IOX-1] (top concentration 100000 nM), 2.24.
